We go through one compound from article PMC10508264, “Exploring the antioxidant, antimicrobial, cytotoxic and biothermodynamic properties of novel morpholine derivative bioactive Mn(II), Co(II) and Ni(II) complexes – combined experimental and theoretical measurements towards DNA/BSA/SARS-CoV-2 3CL^Pro” (RSC Medicinal Chemistry, 2023).

Common to all, as to assay type: cell-based, human
The subject of experiment [1] is A549. In words: MTT cell viability assay, A549. The settings on record: A549, 72 h of exposure. (Tetrazolium assays rely on reduction of a dye to a coloured formazan, in cell work by metabolically active cells.)
The subject of experiment [2] is HepG2. In words: MTT cell viability assay, HepG2. The conditions noted are these: HepG2, 72 h of exposure.
Experiment [3] deals with MCF-7. In words: MTT cell viability assay, MCF-7. The conditions noted are these: MCF-7, 72 h of exposure.
The subject of experiment [4] is NHDF. In words: MTT cell viability assay, NHDF. The conditions noted are these: NHDF normal cells, 72 h of exposure. The procedure: Cellular viability or metabolic properties can be measured using the MTT assay, which is a powerful and consistent method for cytotoxic properties. […] As per the colorimetric approach, the IC50 values of all compounds were evaluated via the percentage of cell viability or inhibition of growth.[128] […] However, complexes (2) and (3) were exposed to similar cytotoxic potential as the others,[129] which induces apoptosis due to their ability to produce ROS more efficiently than the free ligand. […] The cytotoxic effectiveness is dependent upon the DNA binding modalities, the structure–activity relationship, the drug concentrations, and the incubation period exposure.[130] […] Coordination between the ligands and metal ions results in charge equilibration, which diminishes the polarity of the metal ions and also causes the ability of the test complexes to pass via the cell membrane lipid layer in accordance with Tweedy's chelation theory. Thus, it inhibits the synthesis of cell-wall/protein/nucleic acid. Additionally, the results of DNA binding tests using these complexes, including gel electrophoresis, UV-vis spectral titration, hydrodynamics, emission, and CV findings, were in good agreement with the findings of cytotoxicity.[131] Expressions eqn (44) and (45) were applied to measure the percentage of growth inhibition and cell viability (Table 10). In this case, complexes (2) and (3) have been proven to have greater biological efficiency than the others. Cytotoxicity depends on not only the hydrophilicity or lipophilicity and permeability, which only assist the crossing of the cell membrane but are not responsible for cell death, but also on several other factors, including the Lewis acid character, overall stability, solubility, conductivity, compatibility, length of the metal–ligand bond, overall charge, electron density, reduction potential, dipole moment, intermolecular hydrogen bonds, proton transfer equilibrium, and coordination environment. These significant elements might also contribute to the increased biological activity. Moreover, cobalt is also generally not considered to be a very toxic element, and its coordination complexes have fascinating redox and magnetic characteristics that fit them for a remarkable range of biological and medical uses. […] Moreover, it is possible to intelligently adjust these factors to successfully target a desired pathway or biomolecule. Designing such well-controlled and selective cobalt-based therapeutics may benefit from a mechanistic understanding of the varied bioactivities of cobalt complexes. Thus, knowing the mechanism of action can direct the advancement of prospective cobalt treatments to clinical trial.[133]
2.5. Assessment of in-vitro antimicrobial properties
bacteria and 7 days for fungal strains.

Turning to `N.N.[Cl][Pt][Cl]` [Cisplatin, cisplatin, reference compound], the IC50 (commonly the concentration needed to halve the response being measured) is 31.9 ± 1.6 µM in experiment [1], 22.9 ± 1.1 µM in experiment [2], 20.2 ± 1 µM in experiment [3] and 26.9 ± 1.3 µM in experiment [4].
